Reference: US20100099712A1, “SUBSTITUTED PYRAZOLINE COMPOUNDS WITH ACAT INHIBITION ACTIVITY” (LABORATORIOS DEL DR. ESTEVE, S.A., priority 2007, published 2010)
Read-outs that look alike come from different tables or passages of the source.

How the values were obtained:
[1] = biological target: T1, ACAT 2 (Acyl CoA-Cholesterol Acyltransferase 2) (Rattus norvegicus, UniProt Q7TQM4); experiment: In-vitro determination of inhibition of ACAT 2 (hepatic microsomes, [14C]-Palmitoyl CoA); format: biochemical, Wistar rats
T1 construct: Briefly hepatic microsomes were prepared from the Wistar rats; from tissue; host or cells: liver (hepatic microsomes) of Wistar rats
T1 sequence (Q7TQM4 1-524): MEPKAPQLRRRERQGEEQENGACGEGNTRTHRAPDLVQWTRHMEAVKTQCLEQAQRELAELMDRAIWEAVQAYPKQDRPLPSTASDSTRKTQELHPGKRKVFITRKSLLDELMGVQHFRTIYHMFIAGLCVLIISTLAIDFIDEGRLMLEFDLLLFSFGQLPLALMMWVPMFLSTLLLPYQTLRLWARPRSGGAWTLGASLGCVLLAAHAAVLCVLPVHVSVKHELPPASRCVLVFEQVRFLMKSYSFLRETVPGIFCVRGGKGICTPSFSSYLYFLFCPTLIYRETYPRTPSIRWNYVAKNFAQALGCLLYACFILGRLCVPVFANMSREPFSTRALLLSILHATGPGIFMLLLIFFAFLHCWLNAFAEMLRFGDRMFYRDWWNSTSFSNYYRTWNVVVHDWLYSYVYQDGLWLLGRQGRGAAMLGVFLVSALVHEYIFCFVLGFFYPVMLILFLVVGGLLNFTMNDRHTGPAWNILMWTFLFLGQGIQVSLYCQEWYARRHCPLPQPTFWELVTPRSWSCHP
Experimental: II. In-vitro Determination of Inhibition of ACAT 2 (Acyl CoA-Cholesterol Acyltransferase 2)
The in-vitro determination of the inhibition of the enzyme ACAT 2 by the compounds of the invention is carried out in principle as described in the publication of Largis EE, Wang CH, DeVries VG and Schaffer SA (1989), “A Novel inhibitor of ACAT-catalyzed cholesterol esterification and cholesterol absorption”, J. Lipid Res. 30, 681-689, (1989), whereby hepatic microsomes are used. The radio-substrate used is [^14C]-Palmitoyl CoA. The respective parts of the description are hereby incorporated by reference and forms part of the present disclosure.
Briefly hepatic microsomes were prepared from the Wistar rats. Enzyme inhibition experiments were performed in presence of 18 μM [^14C]-Palmitoyl CoA as substrate. The vehicle used was 1% DMSO. Compounds to be tested were present at various concentrations and the incubation buffer used was 0.2 M Phosphate buffer, pH 7.4 at 25° C. After a 15 minutes preincubation period at 37° C. an incubation period of 10 minutes at 37° C. followed. Quantification of [^14C]Cholesterol ester was done by column chromatography.

[2] = biological target: T2, ACAT 1 (Acyl CoA-Cholesterol Acyltransferase 1) (Homo sapiens, UniProt P35610); experiment: In-vitro determination of inhibition of ACAT 1 (microsomal membranes of U937 cells differentiated to macrophages, [14C]-Palmitoyl CoA); format: biochemical; conditions: for inhibition at 30 µM: 3 × 10^−5 M; for inhibition at 30 µM / inhibition at 3 µM / inhibition at 100 µM / inhibition at 10 µM / inhibition at 1 µM: read-out: ACAT 1 Inhibition (%) at various concentration of example; for inhibition at 3 µM: 3 × 10^−6 M; for inhibition at 100 µM: 10^−4 M; for inhibition at 10 µM: 10^−5 M; for inhibition at 1 µM: 10^−6 M; for IC50: U937 macrophage microsomes
T2 construct: Cells were collected, homogenized and microsomal membranes prepared; endogenous in cells; host or cells: U937 human monocyte cell line differentiated to macrophages with PMA; microsomal membranes
T2 sequence (P35610 1-550): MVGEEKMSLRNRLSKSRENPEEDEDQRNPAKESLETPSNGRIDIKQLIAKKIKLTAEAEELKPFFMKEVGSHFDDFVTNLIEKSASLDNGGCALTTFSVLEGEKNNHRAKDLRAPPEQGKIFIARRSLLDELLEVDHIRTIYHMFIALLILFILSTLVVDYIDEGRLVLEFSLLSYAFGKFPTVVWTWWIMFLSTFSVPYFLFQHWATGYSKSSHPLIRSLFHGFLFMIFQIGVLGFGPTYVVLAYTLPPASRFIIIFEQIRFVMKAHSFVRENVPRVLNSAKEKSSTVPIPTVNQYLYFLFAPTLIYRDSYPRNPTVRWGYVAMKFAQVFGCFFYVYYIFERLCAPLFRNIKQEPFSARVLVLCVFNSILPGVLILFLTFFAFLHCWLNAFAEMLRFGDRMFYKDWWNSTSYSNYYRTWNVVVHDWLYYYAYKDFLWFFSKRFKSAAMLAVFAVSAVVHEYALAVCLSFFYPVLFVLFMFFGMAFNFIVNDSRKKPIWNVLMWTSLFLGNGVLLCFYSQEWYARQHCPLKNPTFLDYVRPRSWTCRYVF
Experimental: I. In-vitro Determination of Inhibition of ACAT 1 (Acyl CoA-Cholesterol Acyltransferase 1)
The in-vitro determination of the inhibition of the enzyme ACAT 1 by the compounds of the invention is carried out in principle as described:
Human histiocytic monocyte cell line, U937 was differentiated to macrophages with Phorbol 12-myristate 13-acetate at a final concentration of 30 ng/mL for 72 hr. Cells were collected, homogenized and microsomal membranes prepared. Enzyme inhibition experiments were performed in the presence of 20 μM [^14]-Palmitoyl CoA as substrate. The vehicle used was 1% DMSO. Compounds to be tested were present at various concentrations and the incubation buffer used was 0.2M KH2PO4, 1 mM EDTA, 0.15% BSA, pH 7.4. After a 15 minutes preincubation period at 37° C. an incubation period of 1 hour at 37° C. followed. Quantification of [^14C]Cholesterol ester was done by column chromatography.

[3] = biological target: T1, ACAT 2 (Acyl CoA-Cholesterol Acyltransferase 2); conditions: reported value; read-out: ACAT 2 reported IC50 of reference compound; cited from earlier work
[4] = 3 × 10^−6 M, first ACAT 2 table, read-out: ACAT 2 Inhibition (%) at various concentration of example
[5] = 3 × 10^−6 M, second ACAT 2 table, column 4, read-out: ACAT 2 Inhibition (%) at various concentration of example
[6] = 3 × 10^−7 M, first ACAT 2 table, read-out: ACAT 2 Inhibition (%) at various concentration of example
[7] = 10^−5 M, first ACAT 2 table, read-out: ACAT 2 Inhibition (%) at various concentration of example
[8] = 10^−5 M, second ACAT 2 table, column 3, read-out: ACAT 2 Inhibition (%) at various concentration of example
[9] = 10^−6 M, first ACAT 2 table, read-out: ACAT 2 Inhibition (%) at various concentration of example
[10] = second ACAT 2 table, value marked * estimated from 2 different experiments

Row | IC50 [1, 10] [µM] | IC50 [2] [µM] | Compound | inhibition at 3 µM [1, 4] [%] | inhibition at 3 µM [1, 5] [%] | inhibition at 0.3 µM [1, 6] [%] | inhibition at 10 µM [1, 7] [%] | inhibition at 10 µM [1, 8] [%] | inhibition at 1 µM [1, 9] [%] | IC50 ([1]; first ACAT 2 table) [µM] | inhibition at 30 µM [2] [%] | inhibition at 3 µM [2] [%] | inhibition at 100 µM [2] [%] | inhibition at 10 µM [2] [%] | inhibition at 1 µM [2] [%] | further results
1 | 2 | 4.84 | CC1C(c2ccccc2)C(C(=O)O)=NN1c1ccc(Cl)cc1Cl (stereo not shown) [Example 3, 1-(2,4-Dichloro-phenyl)-5-methyl-4-phenyl-4,5-dihydro-1H-pyrazole-3-carboxylic acid] | 75 | 71 | 29 | 88 | 86 | 56 | 0.82 | 74 | 50 | 86 | 64 | 17 | inhibition at 30 µM ([1]; 3 × 10^−5 M, first ACAT 2 table, read-out: ACAT 2 Inhibition (%) at various concentration of example): 92%; inhibition at 3 µM ([1]; 3 × 10^−6 M, second ACAT 2 table, repeated head, column 6, read-out: ACAT 2 Inhibition (%) at various concentration of example): 40%; inhibition at 10 µM ([1]; 10^−5 M, second ACAT 2 table, repeated head, column 5, read-out: ACAT 2 Inhibition (%) at various concentration of example): 65%
2 | – | – | C[C@@H]1[C@@H](c2ccccc2)C(C(=O)NN2CCCCC2)=NN1c1ccc(Cl)cc1Cl.Cl (racemic) [Example 2, 1-(2,4-Dichloro-phenyl)-5-methyl-4-phenyl-4,5-dihydro-1H-pyrazole-3-carboxylic acid piperidin-1-ylamide; Hydrochloride] | – | – | – | – | – | – | 1.42 | – | – | – | – | – | ACAT 2 Inhibition (%) at various concentration of example ([1]; 3 × 10^−5 M, second ACAT 2 table): 96%; ACAT 2 Inhibition (%) at various concentration of example ([1]; 3 × 10^−6 M, first ACAT 2 table): 70%; ACAT 2 Inhibition (%) at various concentration of example ([1]; 3 × 10^−7 M, first ACAT 2 table): 17%; ACAT 2 Inhibition (%) at various concentration of example ([1]; 10^−4 M, second ACAT 2 table): 100%; ACAT 2 Inhibition (%) at various concentration of example ([1]; 10^−5 M, first ACAT 2 table): 90%; ACAT 2 Inhibition (%) at various concentration of example ([1]; 10^−6 M, first ACAT 2 table): 39%; ACAT 2 Inhibition (%) at various concentration of example ([1]; 10^−7 M, first ACAT 2 table): 4%
3 | 12.5 | 9.6 | CC[C@H](C)C(=O)O[C@H]1C[C@@H](C)C=C2C=C[C@H](C)[C@H](CC[C@@H]3C[C@@H](O)CC(=O)O3)[C@H]21 [Lovastatin, reference compound] | – | – | – | – | – | – | 22.7 | – | – | – | – | – | IC50 [3]: 29 µM

Row | Compound | IC50 [1, 10] [µM] | IC50 [2] [µM] | inhibition at 3 µM [1, 4] [%] | inhibition at 3 µM [1, 5] [%] | inhibition at 0.3 µM [1, 6] [%] | inhibition at 10 µM [1, 7] [%] | inhibition at 10 µM [1, 8] [%] | inhibition at 1 µM [1, 9] [%] | IC50 ([1]; first ACAT 2 table) [µM] | inhibition at 30 µM [2] [%] | inhibition at 3 µM [2] [%] | inhibition at 100 µM [2] [%] | inhibition at 10 µM [2] [%] | inhibition at 1 µM [2] [%] | further results
4 | C[C@@H]1[C@@H](c2ccccc2)C(C(=O)NN2CCCCC2)=NN1c1ccc(Cl)cc1Cl (racemic) [Example 1, 1-(2,4-Dichlorophenyl)-5-methyl-4-phenyl-4,5-dihydro-1H-pyrazole-3-carboxylic acid piperidin-1-ylamide] | < 3 | 9.66 | 70 | 74 | 19 | 94 | 93 | 44 | 1.28 | 72 | 38 | 55 | 65 | 14 | inhibition at 30 µM ([1]; 3 × 10^−5 M, second ACAT 2 table, read-out: ACAT 2 Inhibition (%) at various concentration of example): 97%; inhibition at 100 µM ([1]; 10^−4 M, second ACAT 2 table, read-out: ACAT 2 Inhibition (%) at various concentration of example): 101%; inhibition at 0.1 µM ([1]; 10^−7 M, first ACAT 2 table, read-out: ACAT 2 Inhibition (%) at various concentration of example): -3%
